Where two headings read alike, the source gives them in different places.
Columns and labels:
JAK2 = molecular target: T1, JAK2 (Homo sapiens, UniProt O60674); test: LanthaScreen JAK biochemical assay, JAK2; conditions: read-out: JAK 2 pKi (converted)
T1 construct: GST; purchased Life Technologies
Protocol: A panel of four LanthaScreen JAK biochemical assays (JAK1, 2, 3 and Tyk2) were carried in a common kinase reaction buffer (50 mM HEPES, pH 7.5, 0.01% Brij-35, 10 mM MgCl2, and 1 mM EGTA). Recombinant GST-tagged JAK enzymes and a GFP-tagged STAT1 peptide substrate were obtained from Life Technologies.
Serially diluted compound was pre-incubated with each of the four JAK enzymes and the substrate in white 384-well microplates (Corning) at ambient temperature for 1 h. ATP was subsequently added to initiate the kinase reactions in 10 μL total volume, with 1% DMSO. […] The plates were allowed to incubate at ambient temperature for 1 h before being read on the EnVision reader (Perkin Elmer). Emission ratio signals (520 nm/495 nm) were recorded and utilized to calculate the percent inhibition values based on DMSO and background controls.
For dose-response analysis, percent inhibition data were plotted vs. compound concentrations, and IC50 values were determined from a 4-parameter robust fit model with the Prism software (GraphPad Software). Results were expressed as pIC50 (negative logarithm of IC50) and subsequently converted to pKi (negative logarithm of dissociation constant, Ki) using the Cheng-Prusoff equation.

[1] = test system: IL-13 induced STAT6 phosphorylation in BEAS-2B human lung epithelial cells; test: Cellular JAK potency assay: inhibition of IL-13 (AlphaScreen, BEAS-2B); assay type: cell-based
Protocol: The AlphaScreen JAK1 cellular potency assay was carried out by measuring interleukin-13 (IL-13, R&D Systems) induced STAT6 phosphorylation in BEAS-2B human lung epithelial cells (ATCC). The anti-STAT6 antibody (Cell Signaling Technologies) was conjugated to AlphaScreen acceptor beads (Perkin Elmer), while the anti-pSTAT6 (pTyr641) antibody (Cell Signaling Technologies) was biotinylated using EZ-Link Sulfo-NHS-Biotin (Thermo Scientific).
BEAS-2B cells were grown at 37° C. in a 5% CO2 humidified incubator in 50% DMEM/50% F-12 medium (Life Technologies) supplemented with 10% FBS (Hyclone), 100 U/mL penicillin, 100 μg/mL streptomycin (Life Technologies), and 2 mM GlutaMAX (Life Technologies). On day 1 of the assay, cells were seeded at a 7,500 cells/well density in white poly-D-lysine-coated 384-well plates (Corning) with 25 μL medium, and were allowed to adhere overnight in the incubator. […] After a minimum of 2 h incubation, the assay plates were read on the EnVision plate reader. AlphaScreen luminescence signals were recorded and utilized to calculate the percent inhibition values based on DMSO and background controls.
For dose-response analysis, percent inhibition data were plotted vs. compound concentrations, and IC50 values were determined from a 4-parameter robust fit model with the Prism software. Results may also be expressed as the negative logarithm of the IC50 value, pIC50.

IFNγ induced IP-10 = test: Pharmacodynamic assay: inhibition of IFNγ-induced IP-10 in rabbit eyes; assay type: in vivo; conditions: Form 1 suspension, 0.9 mg intravitreal, 1 week pre-treatment, New Zealand White rabbits
Protocol: The ability of a single intravitreal administration of test compound to inhibit interferon-gamma (IFNγ) induced IP-10 protein levels was measured in rabbit vitreous and retina/choroid tissues.
A suspension formulation was prepared by combining compound 1 of Example 2 (Form 1), with 0.5% hydroxypropyl methylcellulose (HPMC E5), 0.02% Tween 80, and 9 mg/mL sodium chloride in purified water to attain a target concentration of 20 mg/mL.
Male, New Zealand White rabbits (Liveon Biolabs, India) were used for the studies. Animals were acclimated after arrival at the research facilities (Jubilant Biosys Ltd., India). Each rabbit was given a total of two intravitreal (IVT) injections with a total dose volume of 50 μL per eye. The first IVT injection (45 μL per eye) delivered 0.9 mg of test compound or vehicle. One week later, a second IVT injection (5 μL per eye) delivered IFNγ (1 μg/eye; stock solution 1 mg/mL; Kingfisher Biotech) or vehicle for the induction of IP-10. […]
Tissues were collected 24 hours after the second IVT injection with IFNγ. Vitreous humor (VH) and retina/choroid tissues (R/C) were collected and homogenized, and IP-10 protein levels were measured using a rabbit CXCL10 (IP-10) ELISA kit (Kingfisher Biotech). The percent inhibition of IFNγ-induced IP-10 was calculated in comparison to the vehicle/vehicle and vehicle/IFNγ groups.

T1 sequence (O60674 whole entry): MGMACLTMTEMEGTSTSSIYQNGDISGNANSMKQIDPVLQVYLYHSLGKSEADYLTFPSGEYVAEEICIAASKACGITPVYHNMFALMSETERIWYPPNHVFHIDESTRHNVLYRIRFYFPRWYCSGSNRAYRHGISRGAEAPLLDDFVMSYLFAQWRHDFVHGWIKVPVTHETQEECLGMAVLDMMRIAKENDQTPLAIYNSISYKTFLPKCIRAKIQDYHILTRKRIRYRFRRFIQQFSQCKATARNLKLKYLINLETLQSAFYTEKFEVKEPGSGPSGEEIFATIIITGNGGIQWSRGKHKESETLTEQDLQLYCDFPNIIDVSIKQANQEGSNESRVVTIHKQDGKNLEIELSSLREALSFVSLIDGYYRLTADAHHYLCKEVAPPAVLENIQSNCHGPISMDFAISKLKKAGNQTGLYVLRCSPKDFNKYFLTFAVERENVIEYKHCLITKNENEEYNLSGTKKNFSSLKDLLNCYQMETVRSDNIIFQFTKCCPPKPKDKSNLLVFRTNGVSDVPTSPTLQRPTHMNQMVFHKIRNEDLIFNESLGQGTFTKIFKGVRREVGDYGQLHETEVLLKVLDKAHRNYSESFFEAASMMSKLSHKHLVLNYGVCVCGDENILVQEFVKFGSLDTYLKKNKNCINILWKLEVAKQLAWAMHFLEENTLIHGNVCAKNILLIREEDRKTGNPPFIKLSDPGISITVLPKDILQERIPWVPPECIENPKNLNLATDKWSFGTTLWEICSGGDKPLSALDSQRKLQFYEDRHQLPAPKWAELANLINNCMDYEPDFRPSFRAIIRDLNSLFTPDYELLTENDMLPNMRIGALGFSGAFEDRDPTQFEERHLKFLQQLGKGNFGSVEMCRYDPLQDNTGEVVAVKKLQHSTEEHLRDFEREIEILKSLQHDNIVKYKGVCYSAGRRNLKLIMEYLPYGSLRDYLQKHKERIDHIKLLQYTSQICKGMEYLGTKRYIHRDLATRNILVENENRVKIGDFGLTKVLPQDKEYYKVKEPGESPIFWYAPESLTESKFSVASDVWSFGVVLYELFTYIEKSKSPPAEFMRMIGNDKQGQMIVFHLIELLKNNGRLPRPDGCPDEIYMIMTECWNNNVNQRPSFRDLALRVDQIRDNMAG

CCc1cc(O)c(F)cc1-c1cc(F)c2c(-c3nc4c([nH]3)CCN(C(=O)CN3CCOCC3)C4)n[nH]c2c1 [Compound 1, 1-(2-(6-(2-ethyl-5-fluoro-4-hydroxyphenyl)-4-fluoro-1H-indazol-3-yl)-1,4,6,7-tetrahydro-5H-imidazo[4,5-c]pyridin-5-yl)-2-morpholinoethan-1-one]
Ki (JAK2): 0.0251 nM | IC50 ([1]; Assay 2, BEAS-2B cells, read-out: IC50 for inhibition of IL-13): 13 nM | IC50 ([1]; BEAS-2B cells, read-out: pIC50, inhibition of IL-13 induced STAT6 phosphorylation (converted)): 12.6 nM | inhibition of IFNγ-induced IP-10 in retina/choroid tissues (IFNγ induced IP-10): 80% | inhibition of IFNγ-induced IP-10 in vitreous humor (IFNγ induced IP-10): 81%

Reference: US10493077B2, “Fused imidazo-piperidine JAK inhibitor compound” (THERAVANCE BIOPHARMA R&D IP, LLC, priority 2017, dated 2019)
